Earlier results in patent US10021900B2, “Carbohydrate composition and food and beverage producing gradual rise in blood glucose levels” (MATSUTANI CHEMICAL INDUSTRY CO., LTD., priority 2011, dated 2018).

Conditions: 10% by mass aqueous solution

osmotic pressure: about 340 mOSMOL/kg
SMILES: OC[C@H]1O[C@H](OC[C@H]2OC(O)(CO)[C@@H](O)[C@@H]2O)[C@H](O)[C@@H](O)[C@@H]1O (stereo partly shown) [isomaltulose]
